This passage reports IC50 results from US10703757B2, “Compounds and methods for CDK8 modulation and indications therefor” (Plexxikon Inc., priority 2016, dated 2020).

Broadly, the IC50 is the concentration that gives 50% inhibition. Read a low IC50 as inhibition by little substance.

This test has as its system CDK8 (phosphorylation of STAT1 at serine 727 in A549 cells). Put plainly: Cell based Phospho-STAT1 assay (IFNγ-stimulated A549 cells, AlphaLISA). The conditions noted are these: Homo sapiens, A549, A549 cells, phospho-STAT1 after IFNγ stimulation. The protocol: Determine Inhibitor Activity Against CDK8 in Cell Based Phospho-STAT1 Assay
This assay measures the phosphorylation of the CDK8 substrate STAT1 following Interferon-gamma (IFNγ) stimulation^1. The lung carcinoma cell line A549 is seeded in a 96 well plate in 50 μL of culture media at 5×10^4 cells/well and incubated at 37° C. overnight. Serial dilutions of compounds (in total volume of 50 μL culture media) are added to the cells and incubated at 37° C. for one hour. Human IFNγ (R&D Systems) is added to the cells at a 10 ng/mL final concentration. 4 wells containing DMSO treated cells stimulated with IFNγ serve as high controls and 4 wells containing DMSO treated unstimulated cells serve as low controls. After 30 minute IFNγ stimulation at 37° C., the culture media is removed and 50 μL of 1×AlphaLISA lysis buffer (PerkinElmer GA, USA) is added to each well. 5 μL cell lysate is transferred to a 384 well AlphaPlate (PerkinElmer GA, USA) and 5 μL containing 0.156 nM Phospho-STAT1 (Ser727) rabbit monoclonal antibody (Cell Signaling Technology), 0.156 nM Mouse Anti-STAT1 antibody (BD Transduction Laboratories), and 10 μg/mL Anti-rabbit IgG AlphaLISA acceptor beads (PerkinElmer GA, USA) diluted in 1× AlphaLISA immunoassay buffer (PerkinElmer GA, USA) is added to the cell lysates and incubated at room temperature for 90 minutes. 5 μL Anti-Mouse IgG Alpha donor beads diluted in 1× AlphaLISA immunoassay buffer (PerkinElmer GA, USA) is added to the reaction mixture and incubated at room temperature for 90 minutes. Upon excitation of these beads with laser light at 680 nm, singlet oxygen is produced. This singlet oxygen is rapidly quenched, unless the AlphaLISA Anti-Rabbit IgG acceptor beads are in close proximity, in which case a proximity signal can be measured at […]. In the presence of cellular CDK8 catalytic activity, there is a very strong proximity signal. Selective CDK8 inhibitors affect a decrease in this proximity signal through a decrease in phosphorylation of STAT1 at serine 727. The percentage inhibition at individual concentrations relative to high and low controls is calculated. The data are analyzed by using nonlinear regression to generate IC50 values.
(Alpha assays give light when donor and acceptor beads are brought close together.)
`Cn1cc(-c2ccc(-c3cnn4cccc(C5=CCS(=O)(=O)CC5)c34)cc2)cn1` [Compound P-0300, 4-(3-(4-(1-methyl-1H-pyrazol-4-yl)phenyl)pyrazolo[1,5-a]pyridin-4-yl)-3,6-dihydro-2H-thiopyran 1,1-dioxide] came in with an IC50 of 100 to 1000 nM.
`N#CC1CCN(c2cccn3ncc(-c4ccc(-c5nc(C(F)(F)F)no5)cc4)c23)CC1` [Compound P-0424, 1-(3-(4-(3-(trifluoromethyl)-1,2,4-oxadiazol-5-yl)phenyl)pyrazolo[1,5-a]pyridin-4-yl)piperidine-4-carbonitrile]: the concentration for half-maximal inhibition (IC50) lay in the range of 1000 to 10000 nM.
`Cc1nn(C)c(C)c1-c1ccc(-c2cnn3cccc(C#CC(C)(C)O)c23)cc1` [Compound P-0236, 2-methyl-4-(3-(4-(1,3,5-trimethyl-1H-pyrazol-4-yl)phenyl)pyrazolo[1,5-a]pyridin-4-yl)but-3-yn-2-ol] gave an IC50 of 1000 to 10000 nM.
As for `Cn1cc(-c2ccc(-c3cnc4cccc(N5CCC(CO)CC5)n34)cc2)cn1` [Compound P-0434, [1-[3-[4-(1-methylpyrazol-4-yl)phenyl]imidazo[1,2-a]pyridin-5-yl]-4-piperidyl]methanol], the IC50 was 1000 to 10000 nM.
Turning to `Cn1cc(C#Cc2cnc3cccc(N4CCC(CC(N)=O)CC4)n23)cn1` [Compound P-0294, 2-(1-(3-((1-methyl-1H-pyrazol-4-yl)ethynyl)imidazo[1,2-a]pyridin-5-yl)piperidin-4-yl)acetamide], the IC50 lay in the range of 1000 to 10000 nM.
The result for `Cn1cc(-c2ccc(-c3cnc4[nH]cc(Cl)c4c3N3CCC(C#N)CC3)cc2)cn1` [Compound P-0360, 1-(3-chloro-5-(4-(1-methyl-1H-pyrazol-4-yl)phenyl)-1H-pyrrolo[2,3-b]pyridin-4-yl)piperidine-4-carbonitrile] reads 0.1 to 100 nM.
On to `Cn1cc(-c2ccc(-c3cnc4cccc(N5CCNCC5)n34)cc2)cn1` [Compound P-0393, 3-(4-(1-methyl-1H-pyrazol-4-yl)phenyl)-5-(piperazin-1-yl)imidazo[1,2-a]pyridine], for which the IC50 fell in the range of 1000 to 10000 nM.
Regarding `Cn1ncc2cc(-c3cnn4cccc(N5CCC(C)(C#N)CC5)c34)ccc21` [Compound P-0403, 4-methyl-1-(3-(1-methyl-1H-indazol-5-yl)pyrazolo[1,5-a]pyridin-4-yl)piperidine-4-carbonitrile], the IC50 is 0.1 to 100 nM.
With `CC(C)(O)C#Cc1cccn2ncc(-c3ccc(-c4cnn(C(F)F)c4)cc3)c12` [Compound P-0370, 4-(3-(4-(1-(difluoromethyl)-1H-pyrazol-4-yl)phenyl)pyrazolo[1,5-a]pyridin-4-yl)-2-methylbut-3-yn-2-ol], the half-maximal inhibitory concentration (IC50) was 0.1 to 100 nM.
As to `CC(=O)NC(C)(C)C#Cc1cccn2ncc(-c3ccc(-c4cnn(C)c4)cc3)c12` [Compound P-0307, N-(2-methyl-4-(3-(4-(1-methyl-1H-pyrazol-4-yl)phenyl)pyrazolo[1,5-a]pyridin-4-yl)but-3-yn-2-yl)acetamide], the IC50 fell in the range of 100 to 1000 nM.
For `Cc1noc(-c2ccc(-c3cnn4cccc(N5CCC(C#N)(c6ccccn6)CC5)c34)cc2)n1` [Compound P-0351, 1-(3-(4-(3-methyl-1,2,4-oxadiazol-5-yl)phenyl)pyrazolo[1,5-a]pyridin-4-yl)-4-(pyridin-2-yl)piperidine-4-carbonitrile], the concentration for half-maximal inhibition (IC50) lay in the range of 100 to 1000 nM.
`Cn1ncc2cc(-c3cnc4[nH]ccc4c3C3=CCC(C(N)=O)CC3)ccc21` (centres unmarked) [Compound P-0335, 4-(5-(1-methyl-1H-indazol-5-yl)-1H-pyrrolo[2,3-b]pyridin-4-yl)cyclohex-3-ene-1-carboxamide] came in with an IC50 of 0.1 to 100 nM.
With `Cn1cc(-c2ccc(-c3cnc4cccc(OC5CCC(F)(F)CC5)n34)cc2)cn1` [Compound P-0372, 5-((4,4-difluorocyclohexyl)oxy)-3-(4-(1-methyl-1H-pyrazol-4-yl)phenyl)imidazo[1,2-a]pyridine], the IC50 fell in the range of 1000 to 10000 nM.
The compound `Cn1cc(C#Cc2cnc3cccc(N4CCC5(CC4)COC5)n23)cn1` [Compound P-0354, 7-(3-((1-methyl-1H-pyrazol-4-yl)ethynyl)imidazo[1,2-a]pyridin-5-yl)-2-oxa-7-azaspiro[3.5]nonane] returned a concentration for half-maximal inhibition (IC50) of 1000 to 10000 nM.
